Measured values published in PubChem BioAssay (NCI).
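All cell lines were grown in 96-well plates and treated with compound for 48 hours. The concentration for full growth arrest is given as TGI.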

What was measured:
Experiment in all cases: growth of human tumour cells (NCI), 48 h
M14 melanoma = test system: M14 melanoma
SF-295 CNS = test system: SF-295 CNS
UO-31 renal = test system: UO-31 renal
OVCAR-4 ovarian = test system: OVCAR-4 ovarian
UACC-62 melanoma = test system: UACC-62 melanoma
LOX IMVI melanoma = test system: LOX IMVI melanoma
SNB-19 CNS = test system: SNB-19 CNS
M19-MEL melanoma = test system: M19-MEL melanoma
MOLT-4 leukemia = test system: MOLT-4 leukemia
HOP-62 NSCLC = test system: HOP-62 NSCLC
DLD-1 colon = test system: DLD-1 colon
CAKI-1 renal = test system: CAKI-1 renal
SF-268 CNS = test system: SF-268 CNS
CCRF-CEM leukemia = test system: CCRF-CEM leukemia
ACHN renal = test system: ACHN renal
TK-10 renal = test system: TK-10 renal
OVCAR-8 ovarian = test system: OVCAR-8 ovarian
K-562 leukemia = test system: K-562 leukemia
OVCAR-5 ovarian = test system: OVCAR-5 ovarian
786-0 renal = test system: 786-0 renal
KM20L2 colon = test system: KM20L2 colon
NCI-H226 lung = test system: NCI-H226 lung
LXFL 529 NSCLC = test system: LXFL 529 NSCLC
A498 renal = test system: A498 renal
IGROV1 ovarian = test system: IGROV1 ovarian
HOP-92 NSCLC = test system: HOP-92 NSCLC
A549 NSCLC = test system: A549 NSCLC
SK-OV-3 ovarian = test system: SK-OV-3 ovarian
HT29 colon = test system: HT29 colon
MALME-3M melanoma = test system: MALME-3M melanoma
SF-539 CNS = test system: SF-539 CNS
SW-620 colon = test system: SW-620 colon
SK-MEL-28 melanoma = test system: SK-MEL-28 melanoma
SNB-78 CNS = test system: SNB-78 CNS
DMS 114 small cell lung = test system: DMS 114 small cell lung
OVCAR-3 ovarian = test system: OVCAR-3 ovarian
COLO 205 colon = test system: COLO 205 colon
U251 CNS = test system: U251 CNS
RPMI-8226 leukemia = test system: RPMI-8226 leukemia
NCI-H23 lung = test system: NCI-H23 lung
SK-MEL-5 melanoma = test system: SK-MEL-5 melanoma
XF 498 CNS = test system: XF 498 CNS
HOP-18 NSCLC = test system: HOP-18 NSCLC
RXF-631 renal = test system: RXF-631 renal
SN12C renal = test system: SN12C renal
UACC-257 melanoma = test system: UACC-257 melanoma
HCC-2998 colon = test system: HCC-2998 colon
HCT-15 colon = test system: HCT-15 colon
EKVX NSCLC = test system: EKVX NSCLC
NCI-H460 lung = test system: NCI-H460 lung
SK-MEL-2 melanoma = test system: SK-MEL-2 melanoma
SR leukemia = test system: SR leukemia
HL-60(TB) leukemia = test system: HL-60(TB) leukemia
RXF 393 renal = test system: RXF 393 renal
HCT-116 colon = test system: HCT-116 colon
SNB-75 CNS = test system: SNB-75 CNS
NCI-H522 lung = test system: NCI-H522 lung
DMS 273 small cell lung = test system: DMS 273 small cell lung
KM12 colon = test system: KM12 colon

Measured: TGI

OCC12C3C4C1C1C2C3C41CO (configuration not stated)
not listed: SK-MEL-2 melanoma | SR leukemia | HL-60(TB) leukemia | RXF 393 renal | HCT-116 colon | SNB-75 CNS | NCI-H522 lung | DMS 273 small cell lung | KM12 colon
> 100 µM: all other assays above

O=C(Nc1nc2ncn(CC(COc3ccccc3)OC(=O)c3ccccc3)c2c(=O)[nH]1)c1ccccc1 (configuration not stated)
not listed: DLD-1 colon | SF-268 CNS | CCRF-CEM leukemia | TK-10 renal | LXFL 529 NSCLC | HOP-92 NSCLC | SNB-78 CNS | COLO 205 colon | NCI-H23 lung | HOP-18 NSCLC | HCC-2998 colon | NCI-H460 lung
> 100 µM: all other assays above

Nc1c(-c2ccc(Cl)cc2Cl)[n+]([O-])c2ccccc2[n+]1[O-]
not listed: HOP-92 NSCLC | SR leukemia | RXF 393 renal | HCT-116 colon
> 100 µM: all other assays above

N#Cc1cc([N+](=O)[O-])ccc1NC(=O)C(=O)C(C(=O)/C=C/c1ccccc1)C1OC(=O)c2ccccc21 (configuration not stated)
not listed: MOLT-4 leukemia | RPMI-8226 leukemia | SK-MEL-2 melanoma | DMS 273 small cell lung
> 100 µM: all other assays above
